Reference: PubChem BioAssay (NCI)
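96-well plates; 48 h exposure; 5 concentrations. Endpoints by linear interpolation between flanking doses. Not reached: highest tested concentration assigned. The concentration for full growth arrest is given as TGI.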

Experiments:
Assay in all cases: DTP human tumour cell line panel, 48 h
[1] = system: 786-0 renal
[2] = system: A498 renal
[3] = system: A549 NSCLC
[4] = system: ACHN renal
[5] = system: BT-549 breast
[6] = system: CAKI-1 renal
[7] = system: CCRF-CEM leukemia
[8] = system: COLO 205 colon
[9] = system: DU-145 prostate
[10] = system: EKVX NSCLC
[11] = system: HCC-2998 colon
[12] = system: HCT-116 colon
[13] = system: HCT-15 colon
[14] = system: HL-60(TB) leukemia
[15] = system: HOP-62 NSCLC
[16] = system: HOP-92 NSCLC
[17] = system: HS 578T breast
[18] = system: HT29 colon
[19] = system: IGROV1 ovarian
[20] = system: K-562 leukemia
[21] = system: KM12 colon
[22] = system: LOX IMVI melanoma
[23] = system: M14 melanoma
[24] = system: MCF7 breast
[25] = system: MDA-MB-231 breast
[26] = system: MDA-MB-435
[27] = system: MDA-N
[28] = system: MOLT-4 leukemia
[29] = system: NCI-H226 lung
[30] = system: NCI-H23 lung
[31] = system: NCI-H460 lung
[32] = system: NCI-H522 lung
[33] = system: OVCAR-3 ovarian
[34] = system: OVCAR-4 ovarian
[35] = system: OVCAR-5 ovarian
[36] = system: OVCAR-8 ovarian
[37] = system: PC-3 prostate
[38] = system: RPMI-8226 leukemia
[39] = system: RXF 393 renal
[40] = system: SF-268 CNS
[41] = system: SF-295 CNS
[42] = system: SK-MEL-2 melanoma
[43] = system: SK-MEL-28 melanoma
[44] = system: SK-MEL-5 melanoma
[45] = system: SK-OV-3 ovarian
[46] = system: SN12C renal
[47] = system: SNB-19 CNS
[48] = system: SNB-75 CNS
[49] = system: SR leukemia
[50] = system: SW-620 colon
[51] = system: TK-10 renal
[52] = system: U251 CNS
[53] = system: UACC-257 melanoma
[54] = system: UACC-62 melanoma
[55] = system: UO-31 renal

Measured: TGI

COc1cc(/C=C2/Oc3c(OC)cccc3C2=O)ccc1O
> 100 µM: [1] | [2] | [3] | [4] | [5] | [6] | [7] | [8] | [9] | [10] | [11] | [12] | [13] | [14] | [15] | [16] | [17] | [18] | [19] | [20] | [21] | [22] | [23] | [24] | [25] | [26] | [27] | [28] | [29] | [30] | [31] | [32] | [33] | [34] | [35] | [36] | [37] | [38] | [39] | [40] | [41] | [42] | [43] | [44] | [45] | [46] | [47] | [48] | [49] | [50] | [51] | [52] | [53] | [54] | [55]
